Data from patent US20230263725A1, “INTRANASAL ADMINISTRATION OF AN ANTIOXIDANT COMPOUND FOR TREATING CORONAVIRUS INFECTION” (priority 2020, published 2023).
Several values for one entry are separate records, joined by “and”; a condition that tells them apart may be missing. Equal entries are not always repeated. Where two headings read alike, the source gives them in different places.

Tests used:
[1] = cited from earlier work; for F total meas (total bioavailability experimentally determined): naltrexone 4 mg
[2] = test system: brain glutathione (GSH/Cr); assay: Intranasal NAC, brain glutathione by MEGA PRESS MR Spectroscopy in healthy subjects; type: in vivo, humans
Protocol: In this example, intranasal administration of NAC to healthy humans was studied.
The study consisted of two study periods each involving 3 subjects and was designed to provide rapid proof-of-concept data on the ability of intranasal NAC to increase brain GSH levels. In Study Period 1, three right-handed male subjects, and 58 were evaluated. After informed consent and completion of a medical history questionnaire, each subject participated in multiple MR Spectroscopy sessions. On the first day, each subject was scanned once. A T1-weighted thin slice data set was acquired for subsequent positioning of a MR spectroscopy voxel (5×5×3 cm3) positioned with its posterior edge covering the genu of the corpus callosum, extending anteriorly into the frontal lobes.
GSH levels were determined within the volume of interest using […] double-editing for the cysteinyl β-CH2 residue of GSH. Spectral editing was accomplished by refocusing GSH J-evolution during every other acquisition (ON), using a Gaussian pulse centered at the cysteinyl α-CH resonance of GSH at 4.56 p.p.m. During the alternate acquisitions (OFF), the pulse was applied symmetrically about the water peak. The difference-edited GSH spectrum was generated by subtraction of the OFF and ON spectra. Data analysis was accomplished using the GANNET software package which provided information on the GSH/Cr ratio. The Day 1 scan served as an initial baseline.
On Day 2, another baseline evaluation was performed, along with two additional scans at 1-hour and 2-hours post administration of intranasal NAC. The timing of Day 2 scans was shifted relative to Day 1, such that the time-of-day for the Day 1 baseline scan matched the time-of-day of the Day 2, 1-hour post NAC scan. This is illustrated in FIG. 2 and was done to provide control for potential circadian rhythm effects in GSH levels. In FIG. 2, green bars show times of spectroscopic imaging. The time-of-day for the baseline MRS scan on Day 1 matches the time-of-day for the 1-hour post-NAC scan on Day 2.
Solution was delivered as six alternating bursts of 0.33 ml to each nostril over the course of 5-10 minutes.
In Study Period 2, three additional right-handed male subjects, and 31 were studied. MRS data were collected on a single day, with baseline, 1 hr, 2 hrs, and 4 hrs post-NAC evaluations (as illustrated in FIG. 5). The same spectroscopic methods as used in period 1 were employed. However, a multi-dose pump intranasal delivery device was used.

[3] = Safety and tolerability of intranasal NAC in healthy subjects
[4] = test system: A/H1N1 Singapore 6/86 influenza virus; settings: oral NAC over 6 months; control 79%; cited from earlier work
GSH levels in the brain = settings: NAC delivered intranasally and orally; cited from earlier work
SARS-CoV-2 = assay: Oral NAC in mild or moderate COVID-19, open label controlled study NCT04419025; type: in vivo
[5] = intranasal, with versus without DDM
[6] = intranasal + DDM, sumatriptan 10 mg
[7] = intranasal, without DDM, sumatriptan 20 mg
[8] = study period 1, intranasal 20% MUCOMYST, 1 ml per nostril, mucosal atomization device, subject (male)
[9] = study period 2, intranasal, multi-dose pump, (male)

Compound: O=C1CC[C@@]2(O)[C@H]3Cc4ccc(O)c5c4[C@@]2(CCN3CC2CC2)[C@H]1O5 [Naltrexone]
- F total meas (total bioavailability experimentally determined) [1, 6]: 95%
- F total meas (total bioavailability experimentally determined) [1, 7]: 65%

Compound: CC(=O)N[C@@H](CS)C(=O)O [NAC, N-acetyl cysteine]
- bioavailability of oral NAC ([1]; oral dosing): 10% and 9-10%
- time of peak levels ([2]; all subjects, FIG. 8): 1 to 2 h
- effect on brain GSH as measured by MR spectroscopy ([2]; intranasal NAC): statistically significant increase
- brain GSH levels above baseline at 4 hours ([2]; intranasal NAC, 4 hours, FIG. 8): ~ 35%
- increase in brain GSH levels (average percent change in GSH/Cr) ([2]; intranasal NAC, combined across all subjects, FIG. 8): > 50%
- time for which the increase in brain GSH/Cr level is sustained post-administration ([2]; study period 1): at least 2 hours
- Day 2, 1-hour post-NAC GSH/Cr [2, 8]: 0.059 and 0.037 and 0.031
- Day 2, 2-hours post-NAC GSH/Cr [2, 8]: 0.052 and 0.035 and 0.048
- time for which increased brain GSH/Cr levels are maintained ([2]; study period 2): at least 4 hrs
- 1-hr post-NAC GSH/Cr [2, 9]: 0.034 and 0.053 and 0.050
- 2-hours post-NAC GSH/Cr [2, 9]: 0.039 and 0.042 and 0.045
- 4 hrs-hours post-NAC GSH/Cr [2, 9]: 0.036 and 0.041 and 0.042
- changes in heart-rate, breathing rate, O2 saturation or blood pressure ([3]; intranasal NAC): No significant changes
- duration of transient nausea ([3]; intranasal NAC): < 5 min
- subjects voicing complaints about the NAC odor ([3]; intranasal NAC): 5 of 6
- adverse events ([3]; intranasal NAC, 6 subjects): no adverse events were reported
- subjects reporting very mild transient nausea ([3]; intranasal NAC, 6 subjects): 2
- complaints of NAC fluid into the throat ([3]; mucosal atomizer, study period 1): all three subjects complained
- complaints of NAC fluid into the throat ([3]; multi-dose pump, study period 2): not found
- developed a symptomatic form of the A/H1N1 Singapore 6/86 influenza virus [4]: 25%
- effect on GSH levels in the brain (GSH levels in the brain): increase in GSH levels in the brain
- fewer days in the hospital versus no NAC (SARS-CoV-2; hospitalized group, oral NAC): 1 days
- hospitalization days (SARS-CoV-2; hospitalized group, oral NAC 25 mg/kg every 4 hours, 6 days without NAC): 5 days
- deaths (SARS-CoV-2; hospitalized group, oral NAC, group without NAC had 2-3 deaths): no deaths
- increase in hospitalization needed for those who did not receive oral NAC (SARS-CoV-2; outpatients): ~5 x
- outpatients needing hospitalization (SARS-CoV-2; outpatients, mild cases, oral NAC 2400 mg then 1200 mg 2x/day for 2 weeks, 15% without NAC): 3-4%

Compound: CNS(=O)(=O)Cc1ccc2[nH]cc(CCN(C)C)c2c1 [Sumatriptan]
- F total meas (total bioavailability experimentally determined) [1, 6]: 69%
- F total meas (total bioavailability experimentally determined) [1, 7]: 34%
- increase in bioavailability when dosed together with DDM [5]: 35%
